# Data published in patent publication US20250034586A1, “METHOD FOR EDITING BANANA GENES” (Tropic Biosciences UK Limited, priority 2021, published 2025).
# Assays:
# ACO1, Ma01_g11540 = assay: Trait co-editing in selected embryos (PBE #3); assay type: cell-based, banana
# Method: (§1) We transformed ECS as described previously in Example 6, using the new co-editing plasmids detailed in Table 11 above. Embryos were regenerated as detailed previously, either on media without selection, with 25 mg/L G418, 25 μg/L CSF or 50 μg/L CSF. Initial genotyping of all plasmids tested:
# (§2) • All with CsVMV-rAPOBEC1 CBE (rAPOBEC+nCas9 (D10A) PBE from Zong et al. 2017*) and nosP-NptII • pMol_0925 (sgGFP-pNOS::Kan::tOCS-pCsVMV::nCas9PBE1::tg7-Dummy-pTaU6::sg1GFP_58-pTaU6::sg2GFP_59) • pMol_0934 (sgGFP, sgALS1-pNOS::Kan::tOCS-pCsVMV::nCas9PBE1::tg7-taU6::MaALS1sg2_2021-pTaU6::sg1GFP_58-pTaU6::sg2GFP_59) • pMol_0935 (sgGFP, sgALS2-pNOS::Kan::tOCS-pCsVMV::nCas9PBE1::tg7-taU6::MaALS2sg2_2023-pTaU6::sg1GFP_58-pTaU6::sg2GFP_59) • pMol_0926 (sgPPO2, sgALS1-pNOS::Kan::tOCS-pCsVMV::nCas9PBE1::tg7-taU6::MaALS1sg2_2021-pTaU6::sg1PPO2_2961-pTaU6::sg2PPO2_2962-pTaU6::sg3PPO2_2963) • pMol_0927 (sgPPO2, sgALS1-pNOS::Kan::tOCS-pCsVMV::nCas9PBE1::tg7-taU6::MaALS1sg2_2021-pTaU6::sg3PPO2_2963-pTaU6::sg4PPO2_2964) • pMol_0928 (sgACO1, sgALS1-pNOS::Kan::tOCS-pCsVMV::nCas9PBE1::tg7-taU6::MaALS1sg2_2021-pTaU6::sg1ACO1_2965-pTaU6::sg2ACO1_2966-pTaU6::sg3ACO1_2967) • pMol_0929 (sgPPO2, sgALS2-pNOS::Kan::tOCS-pCsVMV::nCas9PBE1::tg7-taU6::MaALS2sg2_2023-pTaU6::sg1PPO2_2961-pTaU6::sg2PPO2_2962-pTaU6::sg3PPO2_2963) • pMol_0930 (sgPPO2, sgALS2-pNOS::Kan::tOCS-pCsVMV::nCas9PBE1::tg7-taU6::MaALS2sg2_2023-pTaU6::sg3PPO2_2963-pTaU6::sg4PPO2_2964) • pMol_0931 (sgACO1, sgALS2-pNOS::Kan::tOCS-pCsVMV::nCas9PBE1::tg7-taU6::MaALS2sg2_2023-pTaU6::sg1ACO1_2965-pTaU6::sg2ACO1_2966-pTaU6::sg3ACO1_2967) ECS were left to ‘recover’ after transformation for 1 week in CS+cefo 300 mg/L. We regenerated embryos in 4 different conditions: • 1. No selection • 2. Stable G418 selection (in EDM only 2-3 months) from PBE #3 only (PBE #1/2 plasmids only have mCherry, not NptII) • 3. 25 μg/L chlorsulfuron (in EDM only 2-3 months) • 4. 50 μg/L chlorsulfuron (in EDM only 2-3 months)
# (§3) gDNA from embryos and plantlets was extracted and qPCR was used to test for the presence of integrated tDNA in the plant genome. Three independent qPCRs were run on each sample with different sets of primers (listed below) spanning the tDNA, ranging from the left to right border. An additional qPCR was run on an endogenous banana gene (actin) for normalisation of Ct values. All qPCRs were run on the LightCycler® 96 System (Roche) using PowerUp™ SYBR® Green Master Mix (Thermo Fisher Scientific™).
# (§4) For edit validation, amplicons for each target gene (als1, als2, ppo2, aco1) were made using Q5® High-Fidelity 2× Master Mix (New England Biolabs, NEB) using reaction settings listed below. PCR products were purified using Monarch® PCR & DNA Cleanup Kit (NEB) according to manufacturer's specifications. The amplicons were after validated by Sanger sequencing.
# PPO2, Ma07_g03540 = assay: Trait co-editing in selected embryos (PBE #3); assay type: cell-based, banana; settings: for PPO2 edited embryos total: 16 embryos tested
# Method: as §1, §2, §3, §4
smiles,measurement,setting,value
"COc1nc(C)nc(NC(=O)NS(=O)(=O)c2ccccc2Cl)n1 [CSF, chlorsulfuron]",Percentage edited ACO1 embryos,"ACO1, Ma01_g11540; 25CSF selection",75
same,ACO1 edited embryos total,"ACO1, Ma01_g11540; 25CSF selection, 8 embryos tested",6
same,Percentage edited ACO1 embryos,"ACO1, Ma01_g11540; 50CSF selection",100
same,ACO1 edited embryos total,"ACO1, Ma01_g11540; 50CSF selection, 7 embryos tested",7
same,Percentage edited PPO2 embryos,"PPO2, Ma07_g03540; 25CSF selection",37.5
same,PPO2 edited embryos total,"PPO2, Ma07_g03540; 25CSF selection",6
same,Percentage edited PPO2 embryos,"PPO2, Ma07_g03540; 50CSF selection",43.75
same,PPO2 edited embryos total,"PPO2, Ma07_g03540; 50CSF selection",7
